Molecular target: human TRPA1 (Homo sapiens (Human), UniProt O75762)
Test: Measurement of TRPA1 antagonist activity (2): as (1), different lot of human TRPA1 expression plasmid
Type: cell-based
Conditions: 293T cells transfected with human TRPA1, allylisothiocyanate 20 μM stimulation, calcium fluorescence, read-out: hTRPA1 IC50
Protocol: Human embryonic kidney-derived 293T cells were cultured in Dulbecco's Modified Eagle Medium containing 10% fetal bovine serum, 10 unit penicillin, and 10 μg streptomycin, plated on a petri dish having a diameter of 10 cm at 3×10^6 cells, and cultured for 24 hr in a CO2 incubator. A reduced serum medium (manufactured by Invitrogen, trade name: OPTI-MEM, 600 μL), a gene transfer reagent (manufactured by Mirus Bio, trade name: Mirus TransIT-293, 18 μL), and human TRPA1 expression plasmid (6 μg) were mixed, the total amount of the mixture was added to the cells on the petri dish to allow for gene transfer. The cells were recovered about for 8 hr later, plated on a poly-D-lysine coated 384 well black/clear bottom plate at 12,000 cells/well, and cultured overnight.
Measurement of Intracellular Calcium Increase
The 384 well plate was recovered, and the medium was removed. A calcium-bonded fluorescent indicator (manufactured by Molecular Device, trade name: Calcium4 Assay Kit, 38 μL) dissolved in assay buffer (1×HBSS, 20 mM HEPES, pH 7.2) was added, and the cells were stained in a CO2 incubator for 1 hr. The cells were taken out at room temperature, stood for not less than 15 min, a test substance (10 μL) was added by a platereader FDSS7000 (Hamamatsu Photonics K.K.) equipped with a 384ch dispenser. After 10 min, allylisothiocyanate (12 μL) was further added at a final concentration of 20 μM, and changes in the relative fluorescence intensity after addition of allylisothiocyanate were measured for 5 min.
Test Substance Preparation
The test substance was dissolved in dimethyl sulfoxide and serially diluted with an assay buffer containing 0.1% bovine serum albumin (1×HBSS, 20 mM HEPES, pH 7.2) to a 4.8-fold concentration of the evaluation concentration. Allylisothiocyanate, which is a known TRPA1 activator, was dissolved in dimethyl sulfoxide to 100 mM, and further diluted 5-fold (100 μM) of the final concentration, like the test substance.
Calculation of Antagonist Activity
Under the test substance-free conditions, the maximum variation range of the fluorescence intensity before and after allylisothiocyanate stimulation was defined to be 100% activity rate, and the variation range before and after buffer stimulation was defined as 0% activity rate. The activity rate on addition of the test substance was determined, and the numerical value obtained by subtracting the activity rate from 100 was defined to be an inhibitory rate. IC50, which is the concentration of the test substance necessary for reaching the 50% inhibitory rate, was calculated from the sigmoid approximate curve by a spreadsheet software Excel-Fit.
Measurement of TRPA1 Antagonist Activity (2)
By a method similar to that in Experimental Example 1-1 except that the lot of human […] expression plasmid is different, the TRPA1 antagonist activity of the test substance was measured.

Sequence of human TRPA1 (O75762 whole entry): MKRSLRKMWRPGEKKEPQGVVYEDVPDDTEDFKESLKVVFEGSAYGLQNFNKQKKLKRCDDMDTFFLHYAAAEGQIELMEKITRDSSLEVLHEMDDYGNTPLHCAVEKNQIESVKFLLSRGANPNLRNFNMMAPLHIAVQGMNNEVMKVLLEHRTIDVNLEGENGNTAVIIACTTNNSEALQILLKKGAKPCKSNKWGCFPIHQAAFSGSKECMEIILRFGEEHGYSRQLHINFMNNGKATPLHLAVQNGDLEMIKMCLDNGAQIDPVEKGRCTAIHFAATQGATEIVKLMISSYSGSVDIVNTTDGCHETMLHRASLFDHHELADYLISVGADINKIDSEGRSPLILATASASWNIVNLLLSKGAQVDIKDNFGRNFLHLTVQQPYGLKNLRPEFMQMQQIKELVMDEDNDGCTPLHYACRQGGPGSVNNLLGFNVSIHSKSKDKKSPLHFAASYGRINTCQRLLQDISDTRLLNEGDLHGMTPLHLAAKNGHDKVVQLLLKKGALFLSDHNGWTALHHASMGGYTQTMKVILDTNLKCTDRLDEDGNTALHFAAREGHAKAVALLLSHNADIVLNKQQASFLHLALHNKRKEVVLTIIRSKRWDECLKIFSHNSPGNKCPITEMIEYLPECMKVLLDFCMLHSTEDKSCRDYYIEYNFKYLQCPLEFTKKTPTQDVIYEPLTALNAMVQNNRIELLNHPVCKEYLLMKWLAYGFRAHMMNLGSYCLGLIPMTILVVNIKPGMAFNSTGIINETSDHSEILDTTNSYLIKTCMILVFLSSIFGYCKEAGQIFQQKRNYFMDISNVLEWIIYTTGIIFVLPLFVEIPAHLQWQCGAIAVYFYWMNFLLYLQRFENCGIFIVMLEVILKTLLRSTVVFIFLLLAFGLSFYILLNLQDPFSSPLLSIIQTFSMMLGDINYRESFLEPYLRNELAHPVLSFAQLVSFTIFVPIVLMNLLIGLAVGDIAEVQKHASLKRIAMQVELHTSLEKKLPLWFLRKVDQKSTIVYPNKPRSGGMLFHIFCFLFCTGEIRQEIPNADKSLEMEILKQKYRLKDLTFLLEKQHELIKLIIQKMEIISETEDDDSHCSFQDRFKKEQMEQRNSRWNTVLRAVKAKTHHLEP

Compound	IC50
O=C(NCc1cc(-c2ccc(C(F)(F)F)cc2)nc(N2CCCC2)n1)[C@@H]1CCCN1S(=O)(=O)c1cc2ccccc2o1 [Example 329, (2S)-1-(benzofuran-2-ylsulfonyl)-N-[[2-pyrrolidin-1-yl-6-[4-(trifluoromethyl)phenyl]pyrimidin-4-yl]methyl]pyrrolidine-2-carboxamide]	14 nM
O=C(NCc1cc(-c2ccc(C(F)(F)F)cc2)nc(N2CCOCC2)n1)[C@@H]1CCCN1S(=O)(=O)c1cc2ccccc2o1 [Example 330, (2S)-1-(benzofuran-2-ylsulfonyl)-N-[[2-morpholino-6-[4-(trifluoromethyl)phenyl]pyrimidin-4-yl]methyl]pyrrolidine-2-carboxamide]	15 nM
O=C(NCc1ccnc(-c2ccc(C(F)F)cc2)c1)[C@@H]1CCCN1S(=O)(=O)c1cc2ccccc2o1 [Example 332, (2S)-1-(benzofuran-2-ylsulfonyl)-N-[[2-[4-(difluoromethyl)phenyl]-4-pyridyl]methyl]pyrrolidine-2-carboxamide]	16 nM
O=C(NCc1cc(-c2ccc(C(F)F)cc2)ccn1)[C@@H]1CCCN1S(=O)(=O)c1cc2ccccc2o1 [Example 333, (2S)-1-(benzofuran-2-ylsulfonyl)-N-[[4-[4-(difluoromethyl)phenyl]-2-pyridyl]methyl]pyrrolidine-2-carboxamide]	21 nM
CC(C)(C)OC(=O)c1cc(CNC(=O)[C@@H]2CCCN2S(=O)(=O)c2cc3ccccc3o2)cc(-c2ccc(C(F)(F)F)cc2)c1 [Example 338, tert-butyl 3-[[[(2S)-1-(benzofuran-2-ylsulfonyl)pyrrolidine-2-carbonyl]amino]methyl]-5-[4-(trifluoromethyl)phenyl]-benzoate]	12 nM
O=C(NCc1cc(-c2ccc(C(F)(F)F)cn2)ccn1)[C@@H]1CCCN1S(=O)(=O)c1cc2ccncc2o1 [Example 346, (2S)-1-furo[2,3-c]pyridin-2-ylsulfonyl-N-[[4-[5-(trifluoromethyl)-2-pyridyl]-2-pyridyl]methyl]pyrrolidine-2-carboxamide]	700 nM
O=C(CN(Cc1ccccn1)S(=O)(=O)c1cc2cc(F)ccc2o1)NCc1cc(-c2ccc(C(F)(F)F)cc2)ncn1 [Example 353, 2-[(5-fluorobenzofuran-2-yl)sulfonyl-(2-pyridylmethyl)-amino]-N-[[6-[4-(trifluoromethyl)-phenyl]pyrimidin-4-yl]methyl]acetamide]	300 nM
CC(C)N(CC(=O)NCc1cc(-c2cnc(C(F)(F)F)nc2)ncn1)S(=O)(=O)c1cc2cc(F)ccc2o1 [Example 360, 2-[(5-fluorobenzofuran-2-yl)sulfonyl-isopropyl-amino]-N-[[6-[2-(trifluoromethyl)pyrimidin-5-yl]pyrimidin-4-yl]methyl]acetamide]	10 nM
CN(CC(=O)NCc1cc(-c2ccc(OC(F)(F)F)cc2)ncn1)S(=O)(=O)c1cc2cc(F)ccc2o1 [Example 362, 2-[(5-fluorobenzofuran-2-yl)sulfonyl-methyl-amino]-N-[[6-[4-(trifluoromethoxy)-phenyl]pyrimidin-4-yl]methyl]acetamide]	7 nM
O=C(CNS(=O)(=O)c1cc2cc(F)ccc2o1)NCc1cc(-c2ccc(OC(F)(F)F)cc2)ncn1 [Example 363, 2-[(5-fluorobenzofuran-2-yl)sulfonylamino]-N-[[6-[4-(trifluoromethoxy)phenyl]-pyrimidin-4-yl]methyl]acetamide]	920 nM
O=C(NCc1cc(-c2ncc(C(F)(F)F)cn2)ccn1)[C@@H]1CCCN1S(=O)(=O)c1cc2cnccc2o1 [Example 365, (2S)-1-furo[3,2-c]pyridin-2-ylsulfonyl-N-[[4-[5-(trifluoromethyl)pyrimidin-2-yl]-2-pyridyl]methyl]pyrrolidine-2-carboxamide]	220 nM
C[C@H](NS(=O)(=O)c1cc2cnccc2o1)C(=O)NCc1ccnc(-c2ccc(C(F)(F)F)cc2)c1 [Example 366, (2S)-2-(furo[3,2-c]pyridin-2-ylsulfonylamino)-N-[[2-[4-(trifluoromethyl)phenyl]-4-pyridyl]methyl]propanamide]	190 nM
C[C@H](NS(=O)(=O)c1cc2cnccc2o1)C(=O)NCc1cccc(-c2ccc(C(F)(F)F)cn2)c1 [Example 367, (2S)-2-(furo[3,2-c]pyridin-2-ylsulfonylamino)-N-[[3-[5-(trifluoromethyl)-2-pyridyl]-phenyl]methyl]propanamide]	170 nM

Next, values leading:

IC50	Compound
11 nM	CN(CC(=O)NCc1cc(-c2ccc(C(F)(F)F)cn2)ccn1)S(=O)(=O)c1cc2cc(F)ccc2o1 [Example 339, 2-[(5-fluorobenzofuran-2-yl)sulfonyl-methyl-amino]-N-[[4-[5-(trifluoromethyl)-2-pyridyl]-2-pyridyl]methyl]acetamide]
380 nM	CN(C(C)(C)C(=O)NCc1cc(-c2ccc(C(F)(F)F)cn2)ccn1)S(=O)(=O)c1cc2cc(F)ccc2o1 [Example 340, 2-[(5-fluorobenzofuran-2-yl)sulfonyl-methyl-amino]-2-methyl-N-[[4-[5-(trifluoromethyl)-2-pyridyl]-2-pyridyl]methyl]propanamide]
14 nM	C[C@@]1(C(=O)NCc2cc(-c3ccc(C(F)(F)F)cn3)ccn2)CCCN1S(=O)(=O)c1cc2cc(F)ccc2o1 [Example 341, (2S)-1-(5-fluorobenzofuran-2-yl)sulfonyl-2-methyl-N-[[4-[5-(trifluoromethyl)-2-pyridyl]-2-pyridyl]methyl]pyrrolidine-2-carboxamide]
180 nM	C[C@H](C(=O)NCc1cc(-c2ccc(C(F)(F)F)cn2)ccn1)N(C)S(=O)(=O)c1cc2cc(F)ccc2o1 [Example 342, (2R)-2-[(5-fluorobenzofuran-2-yl)sulfonyl-methyl-amino]-N-[[4-[5-(trifluoromethyl)-2-pyridyl]-2-pyridyl]methyl]propanamide]
280 nM	O=C(CNS(=O)(=O)c1cc2cc(F)ccc2o1)NCc1cc(-c2ccc(C(F)(F)F)cn2)ccn1 [Example 343, 2-[(5-fluorobenzofuran-2-yl)sulfonylamino]-N-[[4-[5-(trifluoromethyl)-2-pyridyl]-2-pyridyl]methyl]acetamide]
3.3 nM	CN(CC(=O)NCc1cc(-c2ccc(C(F)(F)F)cc2)ncn1)S(=O)(=O)c1cc2cc(F)ccc2o1 [Example 344, 2-[(5-fluorobenzofuran-2-yl)sulfonyl-methyl-amino]-N-[[6-[4-(trifluoromethyl)-phenyl]pyrimidin-4-yl]methyl]acetamide]
270 nM	O=C(CNS(=O)(=O)c1cc2cc(F)ccc2o1)NCc1cc(-c2ccc(C(F)(F)F)cc2)ncn1 [Example 345, 2-[(5-fluorobenzofuran-2-yl)sulfonylamino]-N-[[6-[4-(trifluoromethyl)phenyl]-pyrimidin-4-yl]methyl]acetamide]
16 nM	CC(C)N(CC(=O)NCc1cc(-c2ccc(C(F)(F)F)cn2)ccn1)S(=O)(=O)c1cc2cc(F)ccc2o1 [Example 348, 2-[(5-fluorobenzofuran-2-yl)sulfonyl-isopropyl-amino]-N-[[4-[5-(trifluoromethyl)-2-pyridyl]-2-pyridyl]methyl]acetamide]
43 nM	O=C(CN(CC1CC1)S(=O)(=O)c1cc2cc(F)ccc2o1)NCc1cc(-c2ccc(C(F)(F)F)cn2)ccn1 [Example 349, 2-[cyclopropylmethyl-(5-fluorobenzofuran-2-yl)sulfonyl-amino]-N-[[4-[5-(trifluoromethyl)-2-pyridyl]-2-pyridyl]methyl]acetamide]
44 nM	COCCN(CC(=O)NCc1cc(-c2ccc(C(F)(F)F)cc2)ncn1)S(=O)(=O)c1cc2cc(F)ccc2o1 [Example 357, 2-[(5-fluorobenzofuran-2-yl)sulfonyl-(2-methoxyethyl)-amino]-N-[[6-[4-(trifluoromethyl)-phenyl]pyrimidin-4-yl]methyl]acetamide]
7.9 nM	CC(C)N(CC(=O)NCc1cc(-c2ccc(C(F)(F)F)nc2)ncn1)S(=O)(=O)c1cc2cc(F)ccc2o1 [Example 359, 2-[(5-fluorobenzofuran-2-yl)sulfonyl-isopropyl-amino]-N-[[6-[6-(trifluoromethyl)-3-pyridyl]pyrimidin-4-yl]methyl]acetamide]
10 nM	CC(C)N(CC(=O)NCc1cc(-c2ccc(OC(F)(F)F)cc2)ncn1)S(=O)(=O)c1cc2cc(F)ccc2o1 [Example 364, 2-[(5-fluorobenzofuran-2-yl)sulfonyl-isopropyl-amino]-N-[[6-[4-(trifluoromethoxy)-phenyl]pyrimidin-4-yl]methyl]acetamide]

From patent US10626112B2, “Heterocyclic sulfonamide derivative and medicine comprising same” (EA PHARMA CO., LTD., priority 2014, dated 2020)
